Values of other authors in patent US9012171B2, “Systems and methods for measuring translation activity in viable cells” (Anima Cell Metrology, Inc., priority 2007, dated 2015).

Test system: premature termination codons (PTC)
Details: genetic disorders with premature termination codons in the coding sequence of a critical protein

O=C(O)c1cccc(-c2noc(-c3ccccc3F)n2)c1 [PTC124]
required protein produced, relative to normal concentrations: 1-5%
